# Assay results reported in PubChem BioAssay AID2060884 (Molecular Pharmacology Branch, DTP, NCI, 2025).
# pIC50: −log10 of the molar value.
# Tested on: NCI-H929 complex spheroids, viability % test/control
# Assay: Anticancer human tumor NCI-H929 cell line growth inhibition [RAS];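 note: compound exposure lasted seven days before viability was read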;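 for viability, T/C: 100% = DMSO vehicle control viability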
# Conditions: for pIC50: curve of first compound; for viability, T/C: stronger effect = lower value
# How it was run: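 Agents were tested in combination matrices in half-log decrements from a top concentration at or near clinical Cmax (10 microM if undetermined). Targets were multi-cell spheroids of tumour lines plus HUVEC and MSC stromal cells.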
compound,measurement,setting,value
C[C@@H](NC(=O)c1ncnc(N)c1Cl)c1ncc(C(=O)Nc2cc(C(F)(F)F)c(Cl)cn2)s1 + C#Cc1c(F)ccc2cc(O)cc(-c3ncc4c(N5CC6CCC(C5)N6)nc(OCC56CCCN5CC(F)C6)nc4c3F)c12,pIC50,second compound 0.0316 µM,< 5.00
same,pIC50,second compound 0.1 µM,< 5.00
same,pIC50,second compound 0.316 µM,< 5.00
same,pIC50,second compound 1 µM,< 5.00
same,pIC50,second compound 3.16 µM,< 5.00
same,pIC50,second compound 10 µM,< 5.00
same,"viability, T/C","second compound 0.0316 µM, first compound 0.0316 µM",91.7%
same,"viability, T/C","second compound 0.0316 µM, first compound 0.1 µM",89%
same,"viability, T/C","second compound 0.0316 µM, first compound 0.316 µM",93.6%
same,"viability, T/C","second compound 0.0316 µM, first compound 1 µM",79.9%
same,"viability, T/C","second compound 0.0316 µM, first compound 3.16 µM",92.2%
same,"viability, T/C","second compound 0.0316 µM, first compound 10 µM",108%
same,"viability, T/C","second compound 0.1 µM, first compound 0.0316 µM",96.2%
same,"viability, T/C","second compound 0.1 µM, first compound 0.1 µM",88.3%
same,"viability, T/C","second compound 0.1 µM, first compound 0.316 µM",89.4%
same,"viability, T/C","second compound 0.1 µM, first compound 1 µM",80.7%
same,"viability, T/C","second compound 0.1 µM, first compound 3.16 µM",95.1%
same,"viability, T/C","second compound 0.1 µM, first compound 10 µM",110%
same,"viability, T/C","second compound 0.316 µM, first compound 0.0316 µM",95.3%
same,"viability, T/C","second compound 0.316 µM, first compound 0.1 µM",94%
same,"viability, T/C","second compound 0.316 µM, first compound 0.316 µM",91.5%
same,"viability, T/C","second compound 0.316 µM, first compound 1 µM",85.9%
same,"viability, T/C","second compound 0.316 µM, first compound 3.16 µM",96.4%
same,"viability, T/C","second compound 0.316 µM, first compound 10 µM",106%
same,"viability, T/C","second compound 1 µM, first compound 0.0316 µM",94.9%
same,"viability, T/C","second compound 1 µM, first compound 0.1 µM",91.2%
same,"viability, T/C","second compound 1 µM, first compound 0.316 µM",94.8%
same,"viability, T/C","second compound 1 µM, first compound 1 µM",84.3%
same,"viability, T/C","second compound 1 µM, first compound 3.16 µM",84.1%
same,"viability, T/C","second compound 1 µM, first compound 10 µM",109%
same,"viability, T/C","second compound 3.16 µM, first compound 0.0316 µM",89.4%
same,"viability, T/C","second compound 3.16 µM, first compound 0.1 µM",94.9%
same,"viability, T/C","second compound 3.16 µM, first compound 0.316 µM",82.6%
same,"viability, T/C","second compound 3.16 µM, first compound 1 µM",90.7%
same,"viability, T/C","second compound 3.16 µM, first compound 3.16 µM",89.8%
same,"viability, T/C","second compound 3.16 µM, first compound 10 µM",111%
same,"viability, T/C","second compound 10 µM, first compound 0.0316 µM",77.3%
same,"viability, T/C","second compound 10 µM, first compound 0.1 µM",59.4%
same,"viability, T/C","second compound 10 µM, first compound 0.316 µM",79.2%
same,"viability, T/C","second compound 10 µM, first compound 1 µM",74.1%
same,"viability, T/C","second compound 10 µM, first compound 3.16 µM",92.1%
same,"viability, T/C","second compound 10 µM, first compound 10 µM",101%
CC1(C)CCC(Nc2ncc(C(F)(F)F)c(-c3c[nH]c4c(P(C)(C)=O)c(C#N)ccc34)n2)CN1 (stereo unspecified) + C=CC(=O)N1CCN(c2nc(OCC3CCCN3C)nc3c(F)c(-c4nc(N)cc(C)c4C(F)(F)F)c(Cl)cc23)C(C)C1,pIC50,second compound 0.00316 µM,8.25
same,pIC50,second compound 0.01 µM,8.20
same,pIC50,second compound 0.0316 µM,8.20
same,pIC50,second compound 0.1 µM,8.19
same,pIC50,second compound 0.316 µM,8.19
same,pIC50,second compound 1 µM,8.18
same,"viability, T/C","second compound 0.00316 µM, first compound 0.000949 µM",128%
same,"viability, T/C","second compound 0.00316 µM, first compound 0.003 µM",92.7%
same,"viability, T/C","second compound 0.00316 µM, first compound 0.00949 µM",15.7%
same,"viability, T/C","second compound 0.00316 µM, first compound 0.03 µM",9.6%
same,"viability, T/C","second compound 0.00316 µM, first compound 0.0949 µM",8.73%
same,"viability, T/C","second compound 0.00316 µM, first compound 0.3 µM",5.5%
same,"viability, T/C","second compound 0.01 µM, first compound 0.000949 µM",125%
same,"viability, T/C","second compound 0.01 µM, first compound 0.003 µM",109%
same,"viability, T/C","second compound 0.01 µM, first compound 0.00949 µM",16.1%
same,"viability, T/C","second compound 0.01 µM, first compound 0.03 µM",12.3%
same,"viability, T/C","second compound 0.01 µM, first compound 0.0949 µM",9.77%
same,"viability, T/C","second compound 0.01 µM, first compound 0.3 µM",5.17%
same,"viability, T/C","second compound 0.0316 µM, first compound 0.000949 µM",125%
same,"viability, T/C","second compound 0.0316 µM, first compound 0.003 µM",111%
same,"viability, T/C","second compound 0.0316 µM, first compound 0.00949 µM",16.7%
same,"viability, T/C","second compound 0.0316 µM, first compound 0.03 µM",11.4%
same,"viability, T/C","second compound 0.0316 µM, first compound 0.0949 µM",7.81%
same,"viability, T/C","second compound 0.0316 µM, first compound 0.3 µM",5.16%
same,"viability, T/C","second compound 0.1 µM, first compound 0.000949 µM",123%
same,"viability, T/C","second compound 0.1 µM, first compound 0.003 µM",114%
same,"viability, T/C","second compound 0.1 µM, first compound 0.00949 µM",16.6%
same,"viability, T/C","second compound 0.1 µM, first compound 0.03 µM",11.9%
same,"viability, T/C","second compound 0.1 µM, first compound 0.0949 µM",7.35%
same,"viability, T/C","second compound 0.1 µM, first compound 0.3 µM",5.2%
same,"viability, T/C","second compound 0.316 µM, first compound 0.000949 µM",129%
same,"viability, T/C","second compound 0.316 µM, first compound 0.003 µM",114%
same,"viability, T/C","second compound 0.316 µM, first compound 0.00949 µM",18.5%
same,"viability, T/C","second compound 0.316 µM, first compound 0.03 µM",9.66%
same,"viability, T/C","second compound 0.316 µM, first compound 0.0949 µM",8.16%
same,"viability, T/C","second compound 0.316 µM, first compound 0.3 µM",5.67%
same,"viability, T/C","second compound 1 µM, first compound 0.000949 µM",132%
same,"viability, T/C","second compound 1 µM, first compound 0.003 µM",125%
same,"viability, T/C","second compound 1 µM, first compound 0.00949 µM",17%
same,"viability, T/C","second compound 1 µM, first compound 0.03 µM",13.4%
same,"viability, T/C","second compound 1 µM, first compound 0.0949 µM",9.36%
same,"viability, T/C","second compound 1 µM, first compound 0.3 µM",6.92%
CC1(O)CCCC1n1c(=O)c(C(F)F)cc2cnc(NC3CCN(S(C)(=O)=O)CC3)nc21 (stereo unspecified) + CCn1c(-c2cccnc2C(C)OC)c2c3cc(ccc31)N1CCOC(CC(NC(=O)C(C(C)C)N(C)C(=O)C3(F)CCN(C(=O)C#CC(C)(C)N(C)C)CC3)C(=O)N3CCCC(N3)C(=O)OCC(C)(C)C2)C1,pIC50,second compound 0.000949 µM,7.12
same,pIC50,second compound 0.003 µM,7.12
same,pIC50,second compound 0.00949 µM,7.13
same,pIC50,second compound 0.03 µM,7.15
same,pIC50,second compound 0.0949 µM,7.17
same,pIC50,second compound 0.3 µM,7.20
same,"viability, T/C","second compound 0.000949 µM, first compound 0.0316 µM",104%
same,"viability, T/C","second compound 0.000949 µM, first compound 0.1 µM",32.6%
same,"viability, T/C","second compound 0.000949 µM, first compound 0.316 µM",1.35%
same,"viability, T/C","second compound 0.000949 µM, first compound 1 µM",2.44%
same,"viability, T/C","second compound 0.000949 µM, first compound 3.16 µM",1.45%
same,"viability, T/C","second compound 0.000949 µM, first compound 10 µM",0.12%
same,"viability, T/C","second compound 0.003 µM, first compound 0.0316 µM",100%
same,"viability, T/C","second compound 0.003 µM, first compound 0.1 µM",34.8%
same,"viability, T/C","second compound 0.003 µM, first compound 0.316 µM",1.28%
same,"viability, T/C","second compound 0.003 µM, first compound 1 µM",2.8%
same,"viability, T/C","second compound 0.003 µM, first compound 3.16 µM",1.23%
same,"viability, T/C","second compound 0.003 µM, first compound 10 µM",0.1%
same,"viability, T/C","second compound 0.00949 µM, first compound 0.0316 µM",98.1%
same,"viability, T/C","second compound 0.00949 µM, first compound 0.1 µM",33.3%
same,"viability, T/C","second compound 0.00949 µM, first compound 0.316 µM",0.97%
same,"viability, T/C","second compound 0.00949 µM, first compound 1 µM",2.52%
same,"viability, T/C","second compound 0.00949 µM, first compound 3.16 µM",1.36%
same,"viability, T/C","second compound 0.00949 µM, first compound 10 µM",0.09%
same,"viability, T/C","second compound 0.03 µM, first compound 0.0316 µM",99.8%
same,"viability, T/C","second compound 0.03 µM, first compound 0.1 µM",28.9%
same,"viability, T/C","second compound 0.03 µM, first compound 0.316 µM",1.21%
same,"viability, T/C","second compound 0.03 µM, first compound 1 µM",2.78%
same,"viability, T/C","second compound 0.03 µM, first compound 3.16 µM",1.08%
same,"viability, T/C","second compound 0.03 µM, first compound 10 µM",0.11%
same,"viability, T/C","second compound 0.0949 µM, first compound 0.0316 µM",99.9%
same,"viability, T/C","second compound 0.0949 µM, first compound 0.1 µM",24.5%
same,"viability, T/C","second compound 0.0949 µM, first compound 0.316 µM",1.16%
same,"viability, T/C","second compound 0.0949 µM, first compound 1 µM",2.55%
same,"viability, T/C","second compound 0.0949 µM, first compound 3.16 µM",1.28%
same,"viability, T/C","second compound 0.0949 µM, first compound 10 µM",0.12%
same,"viability, T/C","second compound 0.3 µM, first compound 0.0316 µM",103%
same,"viability, T/C","second compound 0.3 µM, first compound 0.1 µM",13.5%
same,"viability, T/C","second compound 0.3 µM, first compound 0.316 µM",1.13%
same,"viability, T/C","second compound 0.3 µM, first compound 1 µM",2.31%
same,"viability, T/C","second compound 0.3 µM, first compound 3.16 µM",1.74%
same,"viability, T/C","second compound 0.3 µM, first compound 10 µM",0.16%
